Measurements from ChEMBL document CHEMBL1145602, “Synthesis and DNA binding ability of cyclam-amino acid conjugates” (Bioorg Med Chem Lett, 2008).
Activity calls are given as the source filed them. No cut-off for these calls is given here.

Test system: DNA
Assay: Binding affinity to calf thymus DNA at pH 7 by thermal denaturation assay
Format: nucleic-acid assay
Conditions: Bos taurus

O=C(CN1CCCNCCNCCCNCC1)N[C@@H](Cc1ccccc1)C(=O)O
Activity: Active

C[C@H](NC(=O)CN1CCCNCCNCCCNCC1)C(=O)O
Activity: Active

O=C(CN1CCCNCCNCCCNCC1)N[C@@H](COCc1ccccc1)C(=O)O
ΔTm: 8 °C
